Measurements as given in US8618068B2, “Methods and low dose regimens for treating red blood cell disorders” (priority 2009, dated 2013).
Entries after “also recorded” stand apart in the source; their conditions may differ.

How the values were obtained:
γ-globin mRNA = γ-globin mRNA in anemic baboons given HU and DMB; assay type: in vivo; details: HU 3 days/week
F-cells = F-cells in Bfu-e erythroid progenitor cultures; assay type: cell-based
[1] = Dose range-finding embryo/fetal developmental toxicity in rabbits; assay type: in vivo, New Zealand White rabbits
Procedure: DMB was administered orally by gavage to 4 groups of 8 time-mated female New Zealand White rabbits once daily from gestation Days 7 through 20 at dosage levels of 50, 150, 300 and 600 mg/kg/day. […] All findings at necropsy occurred sporadically in single females, with similar frequencies in the control group and/or in a non dose-related manner and were considered incidental and unrelated to administration of DMB. Mean fetal weight in the 600 mg/kg/day group was 8.6% lower than the control group. Fetal weights in the 50, 150 and 300 mg/kg/day groups and fetal survival and external morphology at all dosage levels were unaffected by test article administration.

[2] = Phase 1 single dose clinical study, safety; assay type: in vivo, human
Procedure: The first clinical study was a phase 1, double-blind, placebo-controlled, single dose study of the tolerability, safety and pharmacokinetics of DMB in 32 healthy volunteers. Healthy, fasting adult volunteers received single oral doses of DMB or placebo capsules at one of four dose levels (2 mg/kg, 5 mg/kg, 10 mg/kg and 20 mg/kg). Six subjects received study drug (24 subjects total) and 2 subjects received placebo at each dose level. The 8 placebo subjects received a capsule containing only the excipients from the capsules containing the active agent. Subjects at the 20 mg/kg also received a second dose of study drug after a defined meal, one week following the fasting dose.
Physical examinations, vital signs and neurologic examinations were normal throughout the study. No signs or symptoms of clinical significance were observed. One subject developed transient mild hypotension after dosing, which was clinically asymptomatic, and the Principal Investigator considered this finding to be of no clinical significance. Postural changes in blood pressure and pulse were not evaluated. There were 3 electrocardiogram abnormalities among patients treated with active study medication and 3 among the placebo subjects, all of which were considered to be of no clinical significance. All laboratory studies, including chemistries, coagulation studies, hematology studies and urinalyses were either normal or of no clinical significance except for one subject in whom a urinary tract infection was diagnosed but not disclosed prior to study test article administration. The data are reported for each cohort including the N of subjects that received placebo or study drug. All events were assessed as mild by the Principal Investigator. The reported AEs are shown by Cohort following Table 10. The only AEs considered possibly or probably related to study medication included upper abdominal pain, which occurred in one subject in the 2 mg/kg treatment group, one subject with dizziness in the placebo treatment group, and one subject with dysphoria in the 10 mg/kg treatment group. No subjects discontinued treatment due to AEs and there were no SAEs reported in this study.

CCC(C)(C)C(=O)[O-].[Na+] [DMB, Sodium 2,2-dimethylbutyrate]
γ-globin mRNA increase above baseline (γ-globin mRNA): 290%
F-cells increase above F-cell levels in control cultures (F-cells): 32-71%
maternal body weight gains and food consumption ([1]; 300 mg/kg/day): Reduced mean maternal body weight gains and corresponding reduced mean food consumption
Mean fetal weight lower than the control group ([1]; 600 mg/kg/day): 8.6%
acceptability of dosage for a definitive embryo/fetal development study ([1]; 600 mg/kg/day, maternal and embryo/fetal toxicity): considered unacceptable
maternal or fetal test article-related effects ([1]; 50 and 150 mg/kg/day): no maternal or fetal test article-related effects
maternal macroscopic findings ([1]; any dosage level): No remarkable maternal macroscopic findings
fetal weights (50, 150, 300 mg/kg/day), fetal survival and external morphology (all dosage levels) ([1]; rabbit, in vivo): unaffected
Subject incidence of Abdominal pain, upper ([2]; DMB N = 24): 4%
Subject incidence of Abdominal tenderness ([2]; DMB N = 24): 4%
Subject incidence of Cough ([2]; DMB N = 24): 4%
Subject incidence of Diarrhea ([2]; DMB N = 24): 8%
Subject incidence of Dizziness ([2]; DMB N = 24): 13%
Subject incidence of Dysguesia ([2]; DMB N = 24): 4%
Subject incidence of Dysphoria ([2]; DMB N = 24): 4%
Subject incidence of Ecchymosis ([2]; DMB N = 24): 4%
Subject incidence of Epistaxis ([2]; DMB N = 24): 4%
Subject incidence of Fatigue ([2]; DMB N = 24): 4%
Subject incidence of Headache ([2]; DMB N = 24): 29%
Subject incidence of Insomnia ([2]; DMB N = 24): 4%
Subject incidence of Myalgia ([2]; DMB N = 24): 4%
Subject incidence of Nausea ([2]; DMB N = 24): 8%
Subject incidence of Odynophagia ([2]; DMB N = 24): 4%
Subject incidence of Palpitations ([2]; DMB N = 24): 4%
Subject incidence of Syncope vasovagal ([2]; DMB N = 24): 4%
Subject incidence of URI ([2]; DMB N = 24): 8%
Subject incidence of Vessel puncture site hematoma ([2]; DMB N = 24): 17%
electrocardiogram abnormalities among patients treated with active study medication ([2]; considered of no clinical significance): 3
SAEs reported ([2]; single doses 2 to 20 mg/kg): no SAEs
clinically significant adverse events ([2]; single doses 2 to 20 mg/kg): no clinically significant adverse events; also recorded: no significant AEs
